For 13 compounds, IC50 results are on record in ChEMBL document CHEMBL1140784, “Leishmanicidal and trypanocidal activities of 2-aminocyclohexanol and 1,2-cyclohexanediamine derivatives” (Bioorg Med Chem Lett, 2008).

Each structure is given as a SMILES string.

One experiment has as its system Leishmania amazonensis. Description: Antileishmanial activity against Leishmania amazonensis IFLA/BR/67 promastigotes at pH 8.0 after 72 hrs. In kind it is functional, organism-based.
The subject of a further experiment is Leishmania donovani. Description: Antileishmanial activity against Leishmania donovani MHOM/BR/74/PP75 promastigotes after 72 hrs. The note with it: MHOM/BR/74/PP75, 72 h.
A further experiment concerns Leishmania braziliensis. The experiment can be described thus: Antileishmanial activity against Leishmania braziliensis MHOM/BR/75/M2903 promastigotes after 72 hrs. In kind it is functional, organism-based. The conditions noted are these: MHOM/BR/75/M2903, 72 h.
The subject of the next experiment is Trypanosoma cruzi. The experiment can be described thus: Antitrypanosomal activity against Trypanosoma cruzi Tulahuen epimastigotes after 72 hrs. In kind it is functional, organism-based.

A word on the IC50: it is the concentration at which inhibition is half-maximal. High values mean lower potency, low ones higher potency. With `CCCCCCCCCCCCC/C=C1/CCC[C@@H](NCCCC)[C@@H]1OC(C)=O`, the IC50 amounted to 7.3 µM in the experiment with Leishmania amazonensis, 9.6 µM in the experiment on Leishmania donovani, 7.3 µM in the experiment on Leishmania braziliensis and 1.2 µM in the experiment on Trypanosoma cruzi.

As for `CCCCCCCCCCCCC/C=C1/CCC[C@@H](NCc2ccccc2)[C@@H]1NCCCCCC`, the IC50 is 15.5 µM with Leishmania amazonensis, 13 µM with Leishmania donovani, 10.8 µM with Leishmania braziliensis and 98 µM with Trypanosoma cruzi.

On to `CCCCCCCCCCCCC/C=C1/CCC[C@H](O)[C@H]1OC(C)=O`, for which the half-inhibitory concentration (IC50) in the experiment on Leishmania amazonensis is 11.6 µM; with Leishmania donovani it was 13.3 µM; in the experiment with Leishmania braziliensis it was 13.3 µM; with Trypanosoma cruzi it was 8.8 µM.

Consider `CCCCCCCCCCCCC/C=C1/CCC[C@H](NCCCC)[C@H]1OC(C)=O`, for which the 50% inhibitory concentration (IC50) in the experiment on Leishmania amazonensis is 9.1 µM; in the experiment with Leishmania donovani, 8.6 µM; in the experiment on Leishmania braziliensis it was 8.8 µM; with Trypanosoma cruzi it was 8.6 µM.

In the case of `CCCCCCCCCCCCC/C=C1/CCC[C@H](OCc2ccccc2)[C@H]1N(CC)CC`, the 50% inhibitory concentration (IC50) was determined as 157 µM with Leishmania amazonensis, 157 µM in the experiment with Leishmania donovani, 148 µM with Leishmania braziliensis and 106 µM with Trypanosoma cruzi.

Regarding `CCCCCCCCCCCCC/C=C1/CCC[C@@H]2[C@H]1N2Cc1ccccc1` (stereo partly specified), the half-maximal inhibitory concentration (IC50) with Leishmania amazonensis was 16.2 µM; in the experiment with Leishmania donovani it was 19.9 µM; with Leishmania braziliensis it was 16.2 µM; with Trypanosoma cruzi, 31 µM.

As to `CCCCCCCCCCCCC/C=C1/CCC[C@@H](NCCCC)[C@@H]1NCCCCCC`, the half-maximal inhibitory concentration (IC50) in the experiment on Leishmania amazonensis is 14 µM; in the experiment on Leishmania donovani it was 17.4 µM; in the experiment on Leishmania braziliensis it was 14 µM; in the experiment with Trypanosoma cruzi, 116 µM.

On to `CCCCCCCCCCCCC/C=C1/CCC[C@@H]2[C@H]1N2CCCCCC` (stereo partly specified), for which the IC50 in the experiment with Leishmania amazonensis was 2.4 µM; with Leishmania donovani it was 1.8 µM; with Leishmania braziliensis, 2.4 µM; with Trypanosoma cruzi, 51 µM.

In the case of `CCCCCCCCCCCCC/C=C1/CCC[C@H](O)[C@H]1NCCN` (relative stereo), the concentration for half-maximal inhibition (IC50) in the experiment with Leishmania amazonensis came to 1.1 µM; with Leishmania donovani, 1.1 µM; in the experiment with Leishmania braziliensis, 1.1 µM; in the experiment with Trypanosoma cruzi it was 0.14 µM.

In the case of `CCCCCCCCCCCCCC[C@@H]1CCC[C@H](O)[C@H]1N` (relative stereo), the IC50 is 0.26 µM in the experiment with Leishmania amazonensis, 0.29 µM in the experiment on Leishmania donovani, 0.29 µM in the experiment with Leishmania braziliensis and 0.19 µM with Trypanosoma cruzi.

With `C[C@@H]1[C@H](O)[C@@H](C)/C=C/C=C/C=C/C=C/C=C/C=C/C=C/[C@H](O[C@@H]2O[C@H](C)[C@@H](O)[C@H](N)[C@@H]2O)C[C@@H]2O[C@](O)(C[C@@H](O)C[C@@H](O)[C@H](O)CC[C@@H](O)C[C@@H](O)CC(=O)O[C@H]1C)C[C@H](O)[C@H]2C(=O)O` (stereo in doubt) [AMPHOTERICIN B], the concentration for half-maximal inhibition (IC50) in the experiment with Leishmania amazonensis and in the experiment with Leishmania braziliensis was 0.2 µM throughout.

For `O=C(Cn1ccnc1[N+](=O)[O-])NCc1ccccc1` [BENZNIDAZOLE], the IC50 with Trypanosoma cruzi is 74 µM. This lies in the double-digit micromolar range.

Turning to `N=C(N)c1ccc(OCCCCCOc2ccc(C(=N)N)cc2)cc1` [PENTAMIDINE], the half-maximal inhibitory concentration (IC50) with Leishmania amazonensis, in the experiment on Leishmania donovani and with Leishmania braziliensis was 29.4 µM throughout.
